The results in this text go back to patent EP3485874A1, “METHOD OF PREPARING A NATURAL DEEP EUTECTIC SOLVENT (NADES)-ACTIVE INGREDIENT SYSTEM; A NADES-, AND PREFERABLY A POLYMERIC PRECIPITATION INHIBITOR CONTAINING NADES-, BASED DRUG FORMULATION TECHNOLOGY AND DEVELOPMENT METHOD” (SeraNovo B.V., priority 2017, dated 2019).

Assay type in all cases: physicochemical
A short description of data set [1]: Solubility of the active ingredient in comparable solvents (polar to nonpolar). On the procedure: These values are expressed in mg/ml and determined at a temperature of 25°C at 1 atm. In a preferred embodiment, also the solubility is determined in water-based systems having different pH's, or having different temperatures; and in water-based systems wherein co-solvents are present; and in stomach or intestinal media. Solubility information in a broad range of solvents (including oils, dichloromethane, methanol), is useful because the knowledge of in which type of solvents the active ingredient dissolves well, helps in designing a NADES with similar properties.

A short description of data set [2]: pKa of the active ingredient. An excerpt: Further, the analysis also at least involves determination of acidity/basicity of the compound by determining the pKa value by standard methods. In the case of previously analyzed compounds such information typically available in published literature.
Data set [3] is described as follows: Stability of the active ingredient (pH, storage). As for the experimental part: Suitable secondary criteria are for instance the absolute oral bioavailability, typically denoted as a percentage of the maximum bioavailability of 100% which is defined as the bioavailability of the intravenous formulation as measured in a living being such as those used in animal trials or in human trials. Bioavailability is measured as the AUC (Area Under Curve) of the plasma concentration of a drug collected over a certain period of time, which depends on the half-life of the drug. Another suitable criterion is the stability data (such as temperature sensibility and pH range of stability expressed in time units). This is expressed as a duration in days/months/years where the compound has not undergone unacceptable levels of degradation (<10%) in specific conditions e.g. low pH.

The nature of data set [4]: Solubility of the active ingredient in NADES. The note with it: thermodynamic from solid. As for the experimental part: Subsequently, selected constituents are weighed out in the appropriate molar ratios and corresponding masses and are added to a suitable receptacle, such as a small bottle or other small vessel. In the receptacle generally a stirring element is added, such as a stirring flea. If two or more solid constituents are present, these are generally heated, for instance to about 70°C. When at least one liquid constituent is present, it is generally not needed to heat the system to temperatures higher than about 50°C. The constituents are stirred. When two (or more) solid constituents are mixed, this often leads to high or very high viscosities, in which case addition of some water or other liquid excipients such as propylene glycol is recommended. The stirring is continued until a clear liquid is formed.
After a clear liquid is obtained, it is preferred to let it cool and sit for 24 hours or so, as a check for stability. If a NADES is not stable at RT (room temperature; in other words, if the eutectic point is higher than RT at the selected molar ratio), one can try adding additional constituents or trying a different molar ratio.
Once cooled, the pH of the system is measured. An acidic NADES will in general be good at solubilizing a basic active ingredient due to protonation and vice versa. The stability can also be influenced by the pH, where usually a range of pH values is given that results in the best stability.
Usually it is apparent within an hour whether or not a solvent is going to achieve any worthwhile solubility value. If the solute sticks to the side of the receptacle and/or floats on top, investigation into this solvent can be terminated. If the solute makes for a cloudy solution, further dilution may yield success.

The nature of data set [5]: Particle size of precipitate after about 100 fold dilution of the NADES:PPI formulation with intestinal medium (FaSSIF), optical microscopy. On the procedure:
All PPI's that are soluble at approximately a PPI to active ingredient ratio of 1 to 5 are selected for the next stage of testing. A small sample of for example 100 µl is taken from the NADES:PPI mixture and the appropriate mass of active ingredient is solubilized in the system as above. Each NADES: PPI: active ingredient sample is diluted approximately 100 fold with intestinal medium solutions e.g. Fast State Simulated Intestinal Fluid (FaSSIF). The system with the smallest particle size over a 2 hour period is determined to be the best performing formulation. The particle size is determined using visual inspection and optical microscopy.
The precipitant molecules should in this light have a size less than approximately 10/µm, preferably less than 5µm and ideally less than about 1µm. These sizes are measured at 10 minute intervals over a 2 hours period to analyse the crystal growth. The crystal sizes are monitored using an optical microscope in initial samples; yet are more accurately measured after 2 hours using a Malvern Mastersizer 3000 or similar particle sizing equipment.
Below are microscope images of formulations of flufenamic acid diluted with intestinal medium. The dilution is approximately similar to 1ml of formulation being released into the intestine. The goal is to have sufficiently small particle sizes for a sufficiently long period of time to promote drug absorption. Figures 1, 2 and 3 show progressions in particle size of flufenamic acid in formulations designed using the present invention.
The following example is of a poorly water-soluble molecule, Paclitaxel, and the process of designing a system using the aforementioned invention. […] The second objective was to select one or more PPI's capable of controlling the size of precipitant upon an approximately 100 fold dilution with intestinal medium. The target dose of the formulation was 30mg/ml. The variation in particle size between formulations was analysed with visual inspection. The best performing formulations were compared with a size calibrated optical microscope and camera.

The mark [6] stands for this setting: NADES, organic solvent or mixture, Choline Chloride: Propylene Glycol (1:3), pH 6.71.

Molecules are shown by their SMILES. Values after ≈ are worked out from the molar mass of the structure shown. Like-named read-outs stand apart in the source and are kept apart here. Where only a bound is given, the exact number is not on record here.

What is called solubility is the concentration that dissolves in the medium under given conditions. The pKa is the pH at which an ionisable group is half protonated. In the case of `O=C(O)c1ccccc1Nc1cccc(C(F)(F)F)c1` [Flufenamic acid], in data set [1] (cyclohexane), the solubility in cyclohexane entry was “very low”. Further, the solubility is greater than 50 mg/mL in data set [1] (dimethyl sulfoxide, 25 °C, organic solvent or mixture, read-out: solubility in dimethyl sulfoxide); greater than 50 mg/mL in data set [1] (ethanol, 25 °C, organic solvent or mixture, read-out: solubility in ethanol); 0.009 mg/mL (≈ 0.032 mM) in data set [1] (water, 25°C and 1atm, read-out: Water solubility); 28 mg/mL (≈ 99.6 mM) in data set [4] (setting [6]); less than 1 mg/mL in data set [4] (aqueous with cosolvent or surfactant or cyclodextrin, Choline chloride: Lactic acid: water (2:1:2), pH 2.19, polar NADES); 93.1 mg/mL (≈ 331 mM) in data set [4] (organic solvent or mixture, Acetamide: Propylene Glycol (1:2), pH 6.47, basic NADES). Also, the solubility was 50 mg/mL (≈ 178 mM) in data set [4] (organic solvent or mixture, Acetamide: Propylene Glycol (1:3), pH 6.89, basic NADES); 28 mg/mL (≈ 99.6 mM) in data set [4] (organic solvent or mixture, Choline Chloride: Ethylene Glycol (1:3), pH 6.08, neutral NADES); less than 1 mg/mL in data set [4] (organic solvent or mixture, Choline chloride: glucose: butylene glycol (2:1:1), polar NADES); less than 1 mg/mL in data set [4] (organic solvent or mixture, Sorbitol: Urea (1:1), pH 8.3, polar NADES). Moreover, in data set [1] (hexane), the solubility in hexane result is on record as “very low”. Also, the “solubility in mineral oil (paraffin oil)” value in data set [1] (mineral oil (paraffin oil)) was “very low”. In addition, the Water solubility result in data set [1] (water, 25°C and 1atm) was “very low”. In addition, the pKa in data set [2] (read-out: pKa) stood at 3.65. In data set [3] (both acidic and basic aqueous solutions, period of 3 months at RT), the Stability entry was “stable”. For the same compound, the “Particle size result (microscope photograph, Fig. 2)” value in data set [5] (28 mg/ml in choline chloride: propylene glycol (1:3) with 14 mg/ml Polyethylene Glycol-4000 solubilized in FaSSIF, 40x magnification) is reported as “poor result”. Further, the “Particle size result (microscope photograph, Fig. 3)” value in data set [5] (28 mg/ml in choline chloride: propylene glycol (1:3) with 56 mg/ml Polyethylene Glycol-4000 solubilized in FaSSIF, 40x magnification) is reported as “good result”.
`CC(=O)O[C@H]1C(=O)[C@@]2(C)[C@H]([C@H](OC(=O)c3ccccc3)[C@]3(O)C[C@H](OC(=O)[C@H](O)[C@@H](NC(=O)c4ccccc4)c4ccccc4)C(C)=C1C3(C)C)[C@]1(OC(C)=O)CO[C@@H]1C[C@@H]2O` [Paclitaxel]: the solubility is 15 to 20 mg/mL (≈ 17.6 to 23.4 mM) in data set [1] (caster oil, 25 °C, oil or lipid, read-out: approximate solubility in caster oil); 15 to 20 mg/mL (≈ 17.6 to 23.4 mM) in data set [1] (olive oil, 25 °C, oil or lipid, read-out: approximate solubility in olive oil); 30 mg/mL (≈ 35.1 mM) in data set [4] (setting [6]); less than 1 mg/mL in data set [4] (aqueous with cosolvent or surfactant or cyclodextrin, Malic acid: Beta alanine: Water (1:1:2), pH 3.43, acidic NADES); less than 1 mg/mL in data set [4] (aqueous with cosolvent or surfactant or cyclodextrin, Sucrose: Glucose: Fructose: Water (1:1:1:8), pH 3.36, polar NADES); less than 1 mg/mL in data set [4] (pH 9.8, aqueous with cosolvent or surfactant or cyclodextrin, Choline Chloride: Urea: Water (1:1:2), pH 9.80, polar NADES). The solubility in ethanol in data set [1] (ethanol) was determined as 1.5 mg/mL (≈ 1.76 mM). Besides, the pKa in data set [2] and in data set [2] (read-out: pKa) was 11.9 throughout. Further, the “pH range in which most stable” value in data set [3] is on record as 3-6 pH. The “Stability at basic pH” value in data set [3] (basic pH (8)) is reported as “degrades quickly”. Also, the “Particle size result (microscope photograph, Fig. 4)” value in data set [5] (30 mg/ml in choline chloride: propylene glycol (1:3) with 30 mg/ml hypromellose acetate succinate solubilized in FaSSIF, 40x magnification) is “good result”. For the same compound, the “Particle size, majority of observable particles (Fig. 4)” value in data set [5] (formulation diluted with intestinal medium, particles less than 1 µm not detected by optical microscopy) was “less than 10 µm”.
